Where only a bound is given, the exact number is not on record here.

The source of these data is PubChem BioAssay AID1508612.

The series can be described thus: passive permeability, PAMPA, ADME assay (AID 1508612). The settings on record: pH 7.4, 30.0 min, 50.0 µM.

As usually defined, the Papp is a coefficient for how fast a substance crosses the barrier. Low readings indicate poor permeation, high ones ready permeation. `Cc1cnccc1-c1nc(Nc2ccc(F)c(F)c2)c2ccccc2n1` registered a Papp of 31.1 ×10⁻⁶ cm/s. `Cc1cc(C)nc(NC(=S)N2CCN(c3cccc(C(F)(F)F)n3)CC2)c1` registered a Papp of 589 ×10⁻⁶ cm/s. `CCOc1ccc(N2CC(c3nc(-c4cc(OC)c(OC)c(OC)c4)no3)CC2=O)cc1` (stereo not drawn) displayed a Papp greater than 1000 ×10⁻⁶ cm/s. With `O=C(c1ccc2ccccc2c1)N1CCN(c2ccc(O)cc2)CC1` the figure was 527 ×10⁻⁶ cm/s; with `Cc1ccc(S(=O)(=O)Nc2ccc(Br)cc2C(=O)Nc2nc(-c3ccccc3)cs2)cc1`, 2.4 ×10⁻⁶ cm/s; with `CC1=C(C(=O)Nc2nnc(-c3ccccc3)s2)C(c2nn(C)cc2Cl)N=C(Nc2nc3ccccc3o2)N1` (stereo not drawn), 23.1 ×10⁻⁶ cm/s. With `Clc1ccc(C2=Nn3c(nnc3-c3ccncc3)SC2)cc1` the figure was 372 ×10⁻⁶ cm/s; with `Cc1c(C(=O)OCCOc2ccccc2)[nH]c2c1C(=O)CC(c1ccccc1)C2` (stereo not drawn), 276 ×10⁻⁶ cm/s. With `C[S+](=O)([O-])c1ccc(-c2nc(C(=O)NCc3cccnc3)n3ccccc23)cc1` the figure was 540 ×10⁻⁶ cm/s; with `C[C@]12N[C@H](Cc3ccccc31)c1ccccc12`, greater than 1000 ×10⁻⁶ cm/s.

In turn, `Cc1nnn(C)c1-c1cnc2c3ccc(C(C)(C)O)cc3n([C@H](c3ccccc3)C3CCOCC3)c2c1` had a Papp of 746 ×10⁻⁶ cm/s. `COc1ccc(-c2ccc3nc(-c4cc(C)cc(C)c4)oc3c2)c(OC)c1OC` gave a Papp of less than 1 ×10⁻⁶ cm/s. With `O=C(/C=C/c1cn(CC(O)CN2CCCCCC2)c2ccccc12)c1ccc(Br)cc1` (stereo not drawn) the figure was 931 ×10⁻⁶ cm/s. With `Cn1cc(C2=C(c3cn(CCCSC(=N)N)c4ccccc34)C(=O)NC2=O)c2ccccc21` the figure was 11.1 ×10⁻⁶ cm/s; with `Cc1sc2c(c1C)C(c1ccc(Cl)cc1)=N[C@@H](CC(=O)Nc1ccc(OCCOCCOCCOCCNc3cccc4c3C(=O)N(C3CCC(=O)NC3=O)C4=O)cc1)c1nnc(C)n1-2` (stereo partly drawn), 4.9 ×10⁻⁶ cm/s; with `CCCNC(=O)c1ccc2c(c1)N=C(C)c1c(C)ccc(C)c1S2`, greater than 1000 ×10⁻⁶ cm/s.

For `COc1cc(Nc2nc(-c3ccncc3)nc3ccccc23)ccc1NS(C)(=O)=O`, the Papp was greater than 1000 ×10⁻⁶ cm/s. With `COC(=O)[C@H](Cc1ccc(O[S+](=O)([O-])c2cccc3cnccc23)cc1)N[S+](=O)([O-])c1ccc2cnccc2c1` the figure was greater than 1000 ×10⁻⁶ cm/s. With `O=c1ncn2nc(Sc3ccc(F)cc3F)ccc2c1-c1c(Cl)cccc1Cl` the figure was 866 ×10⁻⁶ cm/s; with `Cc1ccc(S(=O)(=O)Nc2ccccc2C(=O)Nc2nc(-c3ccccc3)cs2)cc1`, greater than 1000 ×10⁻⁶ cm/s. With `CC[S+](=O)([O-])Nc1ccccc1C(=O)Nc1nc(-c2ccccc2)cs1`, the Papp came to 512 ×10⁻⁶ cm/s. With `O=C(Nc1ccc2c(N3CCOCC3)ncnc2c1)c1cccc(Br)c1` the figure was greater than 1000 ×10⁻⁶ cm/s; with `Cc1ccnc(NC(=S)N2CCC(c3cccc(C(F)(F)F)c3)CC2)c1`, 672 ×10⁻⁶ cm/s. With `Cc1ccc(-n2ncc3c(NCCCN(C)C)ncnc32)cc1Cl` the figure was greater than 1000 ×10⁻⁶ cm/s. With `Cn1c2cc(S(C)=O)sc2c2cnn(Cc3cccc(N)c3)c(=O)c21` (stereo not drawn) the figure was 106 ×10⁻⁶ cm/s.

Consider `Cc1nc2nc(NC(=O)c3ccc(C(C)(C)C)cc3)[nH]n2c(=O)c1Cl`, for which the Papp is 8.91 ×10⁻⁶ cm/s. With `Cc1ccc(-c2nc(NCC(=O)Nc3cccc(C(=O)O)c3)c3ccccc3n2)cc1` the figure was less than 1 ×10⁻⁶ cm/s; with `Cc1ccnc(NC(=O)C2CC(=O)N(c3n[nH]c4cc(Br)ccc34)C2)c1` (stereo not drawn), 563 ×10⁻⁶ cm/s. With `O=C(Nc1nc(-c2ccccc2)cs1)c1ccncc1NS(=O)(=O)c1ccc(-c2ccccc2)cc1` the figure was less than 1 ×10⁻⁶ cm/s; with `COc1cccc(CNc2ccc(S(=O)(=O)Nc3ccccn3)cc2)c1O`, 586 ×10⁻⁶ cm/s.

`O=C1CCCC2=C1C(c1[nH]ncc1Cl)N=C(Nc1nc3cc([S+](=O)([O-])N4CCCC4)ccc3o1)N2` (stereo not drawn) had a Papp of 47 ×10⁻⁶ cm/s.

In turn, `COc1ccc2[nH]c(=O)c(-c3noc(-c4cccs4)n3)cc2c1` gave a Papp of 351 ×10⁻⁶ cm/s. With `Cc1nsc(N)c1C(=O)N(C)CCOc1ccccc1Cl` the figure was 389 ×10⁻⁶ cm/s; with `Cc1nc2sccn2c(=O)c1S(=O)(=O)Nc1ccc(N2CCN(C)CC2)cc1`, 289 ×10⁻⁶ cm/s. With `O=C(Cc1ccc2ccccc2c1)Nc1ccc(S(=O)(=O)Nc2nccs2)cc1` the figure was 16.9 ×10⁻⁶ cm/s; with `Cc1cccc2nc(NC3=NC(c4[nH]ncc4Cl)C4=C(CCCC4=O)N3)oc12` (stereo not drawn), 624 ×10⁻⁶ cm/s; with `Cn1cncc1[C@@](N)(c1ccc(Cl)cc1)c1ccc2c(c1)c(-c1cccc(Cl)c1)cc(=O)n2C`, greater than 1000 ×10⁻⁶ cm/s. `CCOC(=O)C1CCN(c2ncc(-c3ccc4c(c3)OCCCO4)s2)CC1` displayed a Papp greater than 1000 ×10⁻⁶ cm/s. On to `CN1CCN(C(=O)c2ccc3cc(CCNc4ncnc5ccc(C#N)cc45)ccc3c2)CC1`, for which the Papp was 545 ×10⁻⁶ cm/s. With `CCN1C(=O)c2ccccc2S(=O)c2ccc(NC(=O)Cc3ccc(F)cc3)cc21` (stereo not drawn) the figure was greater than 1000 ×10⁻⁶ cm/s; with `Cn1c(=O)c2c(nc(Cl)n2Cc2ccc(Cl)cc2)n(C)c1=O`, greater than 1000 ×10⁻⁶ cm/s.

`Cc1noc([C@@H]2CN(C(=O)c3nn(C)c4ccccc34)C[C@H]2CO)n1`: the Papp worked out at 84.2 ×10⁻⁶ cm/s. With `CC(Nc1ccc([S+](=O)([O-])Nc2nccs2)cc1)c1ccccc1` (stereo not drawn) the figure was 641 ×10⁻⁶ cm/s; with `CC(C)Oc1ccc(C(=O)Nc2ccc3c(c2)CCCN3C(=O)c2cccs2)cc1`, 491 ×10⁻⁶ cm/s; with `COc1ccccc1N1CCN(C2CCCCC2NS(=O)(=O)c2ccccc2)CC1` (stereo not drawn), greater than 1000 ×10⁻⁶ cm/s. With `COc1ccc(C(=O)NC2CCCc3c2[nH]c2c(Cl)cccc32)cc1OC` (stereo not drawn) the figure was 139 ×10⁻⁶ cm/s; with `Fc1cc(Nc2nc(-c3ccncc3)nc3ccccc23)ccc1C(F)(F)F`, 641 ×10⁻⁶ cm/s; with `Cc1cnc(-c2ccccc2C(C)C)nc1NCC1CN(c2cccnc2)C1`, greater than 1000 ×10⁻⁶ cm/s.

For the molecule `Cc1csc2nc(-c3cccc(NC(=O)c4ccccc4Cl)c3)cn12`, the Papp came out at 651 ×10⁻⁶ cm/s. With `Cc1cccc(N(C)c2nc3ccccc3c3nnc(C)n23)c1` the figure was greater than 1000 ×10⁻⁶ cm/s. In the case of `COc1cccc(C(=O)Nc2ccc3oc(-c4ccc5ccccc5c4)nc3c2)c1`, the Papp is 533 ×10⁻⁶ cm/s. With `Cc1cc(C)nc(NC(=S)N2CCN(c3ccncc3)CC2)c1` the figure was 450 ×10⁻⁶ cm/s. With `CCn1c(C)c(C(C)=O)c(C)c1C(=O)Nc1cccc([S+](=O)([O-])N(C)C)c1` the figure was 405 ×10⁻⁶ cm/s; with `Cc1ccnc(NC(=S)N2CCN(c3ccccc3C(F)(F)F)CC2)c1`, 726 ×10⁻⁶ cm/s. On to `Cc1cnc(-c2ccccc2C(C)C)nc1NCC1CCN(c2cccnc2)C1` (stereo not drawn), for which the Papp is greater than 1000 ×10⁻⁶ cm/s. With `c1ccc(-c2nnc3n2NC(c2ccc4c(c2)OCO4)S3)cc1` (stereo not drawn) the figure was 607 ×10⁻⁶ cm/s. With `O=C(NC1CCCc2c1[nH]c1ccc(Cl)cc21)c1ccncc1` (stereo not drawn) the figure was 7.6 ×10⁻⁶ cm/s; with `CCN(c1ccccc1)S(=O)(=O)c1c(C)nc2scc(C)n2c1=O`, 615 ×10⁻⁶ cm/s; with `CC1(C)CCC(CN2CCN(c3ccc(C(=O)NS(=O)(=O)c4ccc(NCC5CCOCC5)c([N+](=O)[O-])c4)c(Oc4cnc5[nH]ccc5c4)c3)CC2)=C(c2ccc(Cl)cc2)C1`, 1.5 ×10⁻⁶ cm/s.

Consider `N#Cc1nc(-c2cccc3ccccc23)oc1Nc1ccccc1`, for which the Papp turned out to be 821 ×10⁻⁶ cm/s. With `COc1cc2c(cc1OC)C(C[C@H]1CN(S(=O)(=O)c3cccc(C#N)c3)CC[C@H]1CC(=O)O)=NCC2` the figure was 3.25 ×10⁻⁶ cm/s; with `CN1C[C@@H]2C[C@H]1CN2c1cc2c(cc1F)c(=O)c(C(=O)O)cn2C1CC1`, less than 1 ×10⁻⁶ cm/s; with `Nc1ccccc1CNc1ccc(S(=O)(=O)Nc2nccs2)cc1`, 1.09 ×10⁻⁶ cm/s. As for `COc1ccc(-n2nc(C3CCCN(C(=O)c4ccccc4F)C3)[nH]c2=O)cc1` (stereo not drawn), the Papp is 476 ×10⁻⁶ cm/s. With `O=C(Nc1ccccc1F)c1nc(S(=O)(=O)Cc2ccccc2F)ncc1Cl` the figure was 891 ×10⁻⁶ cm/s; with `O=[S+]([O-])(Nc1ccccc1)c1ccc(NCc2cccc(Cl)c2F)cc1`, 383 ×10⁻⁶ cm/s; with `Cc1cc(Cl)ccc1COc1ccnn1-c1cc(C(=O)O)ccn1`, 5.16 ×10⁻⁶ cm/s. With `Cc1cc(Nc2nc(-c3ccncc3)nc3ccccc23)n[nH]1` the figure was 721 ×10⁻⁶ cm/s; with `O=C(Nc1nc(-c2ccc(F)cc2)cs1)c1ccncc1NS(=O)(=O)c1ccccc1Cl`, greater than 1000 ×10⁻⁶ cm/s.

With `Nc1scc2c(C(=O)O)nn(-c3ccccc3)c(=O)c12`, the Papp is less than 1 ×10⁻⁶ cm/s.

As for `COc1ccc(OC)c(N2C(=O)C(Cl)=C(N3CCCCC3)C2=O)c1`, the Papp was greater than 1000 ×10⁻⁶ cm/s. With `O=C(NCC1Cn2cccc2CN1Cc1cccnc1)Nc1ccccc1` (stereo not drawn) the figure was less than 1 ×10⁻⁶ cm/s; with `NC(=O)C1CCN(c2nc(-c3ccc4c(c3)OCO4)cs2)CC1`, 740 ×10⁻⁶ cm/s.

Molecule `O=C(CCCCCCC(=O)Nc1ccccc1)NO` came in with a Papp of 63.4 ×10⁻⁶ cm/s.

For the molecule `CC1CCCCN1c1ncnc(N)c1[N+](=O)[O-]` (stereo not drawn), the Papp was 269 ×10⁻⁶ cm/s. With `Cc1ccc(NS(=O)(=O)c2cccc(C(=O)O)c2)cc1S(=O)(=O)N1CCOCC1` the figure was 23.4 ×10⁻⁶ cm/s; with `COc1cc(Nc2nc(-c3ccncc3)nc3ccccc23)ccc1F`, 445 ×10⁻⁶ cm/s. With `Cc1cc(F)ccc1-c1nc(NCCN=C(N)NC#N)nc2c1ccc(=O)n2-c1c(F)cccc1F` the figure was less than 1 ×10⁻⁶ cm/s; with `O=C1CCCC2=C1C(c1[nH]ncc1Cl)N=C(Nc1nc3cc(F)ccc3o1)N2` (stereo not drawn), 647 ×10⁻⁶ cm/s; with `Cc1cc(-c2nnc3n2CCCCC3)c(C)n1-c1cccc(Cl)c1`, greater than 1000 ×10⁻⁶ cm/s. With `O=S(=O)(Nc1ccc(C2CCNCC2)cc1)c1ccc(NCc2cccc(Cl)c2O)cc1` the figure was 3.22 ×10⁻⁶ cm/s; with `COc1cccc(CC(=O)Nc2nc(-c3ccc4c(c3)CCN4C(=O)c3ccccc3C)c(C)s2)c1`, 674 ×10⁻⁶ cm/s; with `Nc1c(C(=O)Nc2ccc(Cl)c(C(F)(F)F)c2)sc2nc3c(cc12)N1CCC3CC1`, greater than 1000 ×10⁻⁶ cm/s. In turn, `O=C(NC1CC1)c1nc(-c2cccnc2)c2ccccn12` yielded a Papp of 652 ×10⁻⁶ cm/s. With `COc1ccc(Nc2cc(C)nc(-n3nc(C)cc3C)n2)cc1Cl` the figure was greater than 1000 ×10⁻⁶ cm/s; with `COc1cc(O)c([C@H](CC(=O)N2CC(C)CC(C)C2)c2ccc3c(c2)OCO3)c(OC)c1` (stereo partly drawn), greater than 1000 ×10⁻⁶ cm/s.

The molecule `Nc1cc(CN2C(=O)c3ccccc3C2=O)cc(Cl)c1O` yielded a Papp of 352 ×10⁻⁶ cm/s. The molecule `CNc1nccc(-c2cccc3ccccc23)n1` showed a Papp of 905 ×10⁻⁶ cm/s. With `CC(C)(C)c1ccc(-c2ccc(=O)n(CC(=O)NCCc3ccccc3)n2)cc1` the figure was greater than 1000 ×10⁻⁶ cm/s; with `O=C1CCc2cc(S(=O)(=O)Nc3ccc(F)c(Cl)c3)c(F)cc2N1`, 861 ×10⁻⁶ cm/s; with `CCOc1ccc(CCNC(=O)c2ccc(C(=O)c3ccccc3)cc2)cc1OCC`, greater than 1000 ×10⁻⁶ cm/s. `NC(=O)C1CCN(c2nc(-c3cccs3)cs2)CC1` registered a Papp of 195 ×10⁻⁶ cm/s. `O=C(c1nc(-c2ccc(Cl)nc2)c2ccccn12)N1CCCC1` came in with a Papp greater than 1000 ×10⁻⁶ cm/s.
